Source: PubChem BioAssay (NCI)
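A five-concentration, 48-hour dose response in 96-well plates underlies each endpoint, interpolated linearly between surrounding concentrations. The concentration for full growth arrest is given as TGI.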

Columns and labels:
Experiment in all cases: DTP human tumour cell line panel, 48 h
OVCAR-3 ovarian = test system: OVCAR-3 ovarian
EKVX NSCLC = test system: EKVX NSCLC
U251 CNS = test system: U251 CNS
SF-539 CNS = test system: SF-539 CNS
COLO 205 colon = test system: COLO 205 colon
A498 renal = test system: A498 renal
HOP-92 NSCLC = test system: HOP-92 NSCLC
SN12C renal = test system: SN12C renal
HCT-116 colon = test system: HCT-116 colon
786-0 renal = test system: 786-0 renal
SW-620 colon = test system: SW-620 colon
CCRF-CEM leukemia = test system: CCRF-CEM leukemia
SK-MEL-28 melanoma = test system: SK-MEL-28 melanoma
DMS 114 small cell lung = test system: DMS 114 small cell lung
ACHN renal = test system: ACHN renal
HCT-15 colon = test system: HCT-15 colon
IGROV1 ovarian = test system: IGROV1 ovarian
A549 NSCLC = test system: A549 NSCLC
HL-60(TB) leukemia = test system: HL-60(TB) leukemia
M14 melanoma = test system: M14 melanoma
RPMI-8226 leukemia = test system: RPMI-8226 leukemia
K-562 leukemia = test system: K-562 leukemia
LOX IMVI melanoma = test system: LOX IMVI melanoma
OVCAR-8 ovarian = test system: OVCAR-8 ovarian
OVCAR-5 ovarian = test system: OVCAR-5 ovarian
UACC-62 melanoma = test system: UACC-62 melanoma
RXF-631 renal = test system: RXF-631 renal
KM12 colon = test system: KM12 colon
NCI-H226 lung = test system: NCI-H226 lung
MOLT-4 leukemia = test system: MOLT-4 leukemia
SK-OV-3 ovarian = test system: SK-OV-3 ovarian
HCC-2998 colon = test system: HCC-2998 colon
OVCAR-4 ovarian = test system: OVCAR-4 ovarian
DMS 273 small cell lung = test system: DMS 273 small cell lung
M19-MEL melanoma = test system: M19-MEL melanoma
UO-31 renal = test system: UO-31 renal
SNB-78 CNS = test system: SNB-78 CNS
RXF 393 renal = test system: RXF 393 renal
KM20L2 colon = test system: KM20L2 colon
LXFL 529 NSCLC = test system: LXFL 529 NSCLC
TK-10 renal = test system: TK-10 renal
SF-295 CNS = test system: SF-295 CNS
SNB-75 CNS = test system: SNB-75 CNS
HOP-18 NSCLC = test system: HOP-18 NSCLC
CAKI-1 renal = test system: CAKI-1 renal
SK-MEL-5 melanoma = test system: SK-MEL-5 melanoma
HT29 colon = test system: HT29 colon
MALME-3M melanoma = test system: MALME-3M melanoma
SF-268 CNS = test system: SF-268 CNS
DLD-1 colon = test system: DLD-1 colon
SK-MEL-2 melanoma = test system: SK-MEL-2 melanoma
UACC-257 melanoma = test system: UACC-257 melanoma
SNB-19 CNS = test system: SNB-19 CNS
NCI-H23 lung = test system: NCI-H23 lung
NCI-H522 lung = test system: NCI-H522 lung
NCI-H460 lung = test system: NCI-H460 lung
HOP-62 NSCLC = test system: HOP-62 NSCLC

`COC(=O)/C=c1\s/c(=C\C(=O)OC)c2ccccc12` was tested, and the TGI (OVCAR-3 ovarian) was over 100 µM, the TGI (EKVX NSCLC) was over 100 µM and the TGI (U251 CNS) was over 100 µM. It also gave a TGI (SF-539 CNS) of over 100 µM, a TGI (COLO 205 colon) of over 100 µM and a TGI (A498 renal) of over 100 µM. It also gave a TGI (HOP-92 NSCLC) of over 100 µM, a TGI (SN12C renal) of over 100 µM and a TGI (HCT-116 colon) of over 100 µM. It also gave a TGI (786-0 renal) of over 100 µM, a TGI (SW-620 colon) of over 100 µM and a TGI (CCRF-CEM leukemia) of over 100 µM. The TGI (SK-MEL-28 melanoma) was over 100 µM, the TGI (DMS 114 small cell lung) was over 100 µM and the TGI (ACHN renal) was over 100 µM. For the same molecule, the TGI (HCT-15 colon) was over 100 µM, the TGI (IGROV1 ovarian) was over 100 µM and the TGI (A549 NSCLC) was over 100 µM. For the same molecule, the TGI (HL-60(TB) leukemia) was over 100 µM, the TGI (M14 melanoma) was over 100 µM and the TGI (RPMI-8226 leukemia) was over 100 µM. For the same molecule, the TGI (K-562 leukemia) was over 100 µM, the TGI (LOX IMVI melanoma) was over 100 µM and the TGI (OVCAR-8 ovarian) was over 100 µM. For the same molecule, the TGI (OVCAR-5 ovarian) was over 100 µM, the TGI (UACC-62 melanoma) was over 100 µM and the TGI (RXF-631 renal) was over 100 µM. For the same molecule, the TGI (KM12 colon) was over 100 µM, the TGI (NCI-H226 lung) was over 100 µM and the TGI (MOLT-4 leukemia) was over 100 µM. The TGI (SK-OV-3 ovarian) was over 100 µM, the TGI (HCC-2998 colon) was over 100 µM and the TGI (OVCAR-4 ovarian) was over 100 µM. It also gave a TGI (DMS 273 small cell lung) of over 100 µM, a TGI (M19-MEL melanoma) of over 100 µM and a TGI (UO-31 renal) of over 100 µM. For the same molecule, the TGI (SNB-78 CNS) was over 100 µM, the TGI (RXF 393 renal) was over 100 µM and the TGI (KM20L2 colon) was over 100 µM. For the same molecule, the TGI (LXFL 529 NSCLC) was over 100 µM, the TGI (TK-10 renal) was over 100 µM and the TGI (SF-295 CNS) was over 100 µM. For the same molecule, the TGI (SNB-75 CNS) was over 100 µM, the TGI (HOP-18 NSCLC) was over 100 µM and the TGI (CAKI-1 renal) was over 100 µM. It also gave a TGI (SK-MEL-5 melanoma) of over 100 µM, a TGI (HT29 colon) of over 100 µM and a TGI (MALME-3M melanoma) of over 100 µM. It also gave a TGI (SF-268 CNS) of over 100 µM, a TGI (DLD-1 colon) of over 100 µM and a TGI (SK-MEL-2 melanoma) of over 100 µM. For the same molecule, the TGI (UACC-257 melanoma) was over 100 µM, the TGI (SNB-19 CNS) was over 100 µM and the TGI (NCI-H23 lung) was over 100 µM. It also gave a TGI (NCI-H522 lung) of over 100 µM.

Molecule `c1ccc(P(=C2c3ccccc3-c3ccccc32)(c2ccccc2)c2ccccc2)cc1` has a TGI (OVCAR-3 ovarian) of 6.13 µM, a TGI (EKVX NSCLC) of 61.3 µM and a TGI (U251 CNS) of 9.18 µM. The TGI (SF-539 CNS) was 36.7 µM, the TGI (COLO 205 colon) was 15 µM and the TGI (HOP-92 NSCLC) was 7.4 µM. It also gave a TGI (SN12C renal) of 10.9 µM, a TGI (786-0 renal) of 34 µM and a TGI (SW-620 colon) of 10.4 µM. For the same molecule, the TGI (CCRF-CEM leukemia) was 8.34 µM, the TGI (SK-MEL-28 melanoma) was 20.2 µM and the TGI (DMS 114 small cell lung) was 7.78 µM. It also gave a TGI (ACHN renal) of 9.82 µM, a TGI (HCT-15 colon) of 52.2 µM and a TGI (IGROV1 ovarian) of over 100 µM. For the same molecule, the TGI (A549 NSCLC) was 29.6 µM, the TGI (HL-60(TB) leukemia) was 4.36 µM and the TGI (M14 melanoma) was 32.6 µM. For the same molecule, the TGI (K-562 leukemia) was 6 µM, the TGI (LOX IMVI melanoma) was 9.38 µM and the TGI (OVCAR-8 ovarian) was 12.7 µM. For the same molecule, the TGI (OVCAR-5 ovarian) was 48.3 µM, the TGI (UACC-62 melanoma) was 14.1 µM and the TGI (RXF-631 renal) was 28.9 µM. The TGI (KM12 colon) was 5.58 µM, the TGI (SK-OV-3 ovarian) was 80.1 µM and the TGI (HCC-2998 colon) was 15.3 µM. It also gave a TGI (OVCAR-4 ovarian) of over 100 µM, a TGI (DMS 273 small cell lung) of 19.2 µM and a TGI (M19-MEL melanoma) of 20.3 µM. The TGI (UO-31 renal) was 70.7 µM, the TGI (RXF 393 renal) was 93.8 µM and the TGI (KM20L2 colon) was 8.21 µM. It also gave a TGI (NCI-H460 lung) of 19.2 µM, a TGI (HOP-62 NSCLC) of 8.17 µM and a TGI (LXFL 529 NSCLC) of 20 µM. The TGI (TK-10 renal) was 52.2 µM, the TGI (SF-295 CNS) was 16.1 µM and the TGI (SNB-75 CNS) was 83.8 µM. For the same molecule, the TGI (HOP-18 NSCLC) was 80 µM, the TGI (CAKI-1 renal) was over 100 µM and the TGI (SK-MEL-5 melanoma) was 3.96 µM. The TGI (HT29 colon) was 10.4 µM, the TGI (SF-268 CNS) was 69 µM and the TGI (DLD-1 colon) was 65.5 µM. It also gave a TGI (SK-MEL-2 melanoma) of 23.5 µM, a TGI (UACC-257 melanoma) of 27.3 µM and a TGI (SNB-19 CNS) of over 100 µM. The TGI (NCI-H23 lung) was 9.97 µM and the TGI (NCI-H522 lung) was 4.62 µM.
